These results are taken from ChEMBL document CHEMBL1138219 (J Med Chem, 2006).

Assay type in all cases: cell-based
Data set [1] in a line: Cytotoxicity against human HOP62 cell line. As to conditions: HOP-62 cells.
A short description of data set [2]: Cytotoxicity against human HCT116 cell line. Particulars: HCT-116 cells.
Data set [3] is described as follows: Cytotoxicity against human SF539 cell line. Particulars: SF-539 cells.
Data set [4] is described as follows: Cytotoxicity against human UACC62 cell line. Particulars: UACC-62 cells.
Data set [5] in a line: Cytotoxicity against human SN12C cell line. Particulars: SN12C cells.
Data set [6] is described as follows: Cytotoxicity against human OVCAR-3 cell line. As to conditions: OVCAR-3 cells.
The nature of data set [7]: Cytotoxicity against human DU145 cell line. Particulars: DU-145 cells.
Data set [8] is described as follows: Cytotoxicity against human MDA-MB-435 cell line. As to conditions: MDA-MB-435 cells.

As a reminder, the GI50 is the concentration that inhibits growth by half. The low end stands for greater sensitivity of the cells, the high end for lower sensitivity of the cells. `COc1cc2c(c(OC)c1OC)C(=O)c1c-2n(CCCN=[N+]=[N-])c(=O)c2cc([N+](=O)[O-])ccc12`: the 50% growth inhibitory concentration (GI50) in data set [1] is 30.9 µM; in data set [2] it was 36.3 µM; in data set [3], 38.9 µM; in data set [4], 39.8 µM; in data set [5], above 100 µM; in data set [6], above 100 µM. The GI50 in data set [7] and in data set [8] was above 100 µM each time.
For `COc1ccc2c(c1)C(=O)c1c-2n(CCCCl)c(=O)c2cc([N+](=O)[O-])ccc12`, the GI50 in data set [1] is 0.295 µM; in data set [2], 0.794 µM; in data set [3], 0.027 µM; in data set [4] it was below 0.01 µM; in data set [5], below 0.01 µM; in data set [6], 3.39 µM. The results for the GI50 in data set [7] and in data set [8] were 0.036 µM and 3.24 µM, respectively.
Take `COc1cc2c(cc1OC)-c1c(c3ccc([N+](=O)[O-])cc3c(=O)n1CCCN=[N+]=[N-])C2=O`: the GI50 in data set [1] was 29.5 µM; in data set [2] it was 31.6 µM; in data set [3] it was 36.3 µM; in data set [4] it was 51.3 µM; in data set [5], 46.8 µM; in data set [6] it was above 100 µM. Besides, the GI50 was 87.1 µM in data set [7] and above 100 µM in data set [8].
Turning to `COc1cc2c(cc1OC)-c1c(c3ccc([N+](=O)[O-])cc3c(=O)n1CCCN)C2=O`, the GI50 in data set [1] is 1.55 µM; in data set [2] it was 0.589 µM; in data set [3] it was 0.005 µM; in data set [4], 2.51 µM; in data set [5], 0.851 µM; in data set [6] it was 8.13 µM. Also, the GI50 stood at 0.676 µM in data set [7] and 6.46 µM in data set [8].
Turning to `COc1cc2c(c(OC)c1OC)-c1c(c3ccc([N+](=O)[O-])cc3c(=O)n1CCCN=[N+]=[N-])C2=O`, the GI50 is 15.5 µM in data set [1]; 14.1 µM in data set [2]; 13.5 µM in data set [3]; 32.4 µM in data set [4]; 30.2 µM in data set [5]; 45.7 µM in data set [6]. Moreover, the GI50 in data set [7] is 70.8 µM; in data set [8], above 100 µM.
For `COc1ccc2c(c1)C(=O)c1c-2n(CCCN=[N+]=[N-])c(=O)c2cc([N+](=O)[O-])ccc12`, the GI50 is below 0.001 µM in data set [1]; below 0.001 µM in data set [2]; below 0.001 µM in data set [3]; 0.155 µM in data set [6]; below 0.001 µM in data set [7]; 0.251 µM in data set [8].
With `COc1cc2c(c(OC)c1OC)C(=O)c1c-2n(CCCN)c(=O)c2cc([N+](=O)[O-])ccc12`, the GI50 in data set [1] amounted to 0.676 µM; in data set [2], 0.138 µM; in data set [3], 1.35 µM; in data set [4], 6.61 µM; in data set [5] it was 2.09 µM; in data set [6] it was 1.05 µM. Moreover, the GI50 came out at 1.15 µM in data set [7] and 1.07 µM in data set [8].
In the case of `COc1cc2c(c(OC)c1OC)-c1c(c3ccc([N+](=O)[O-])cc3c(=O)n1CCCBr)C2=O`, the GI50 in data set [1] is 15.8 µM; in data set [2] it was 18.6 µM; in data set [3], 4.47 µM; in data set [4] it was 30 µM; in data set [5] it was 19.5 µM; in data set [6], above 100 µM. Also, the GI50 in data set [8] is above 100 µM.
Take `COc1ccc2c(c1OC)-c1c(c3ccc([N+](=O)[O-])cc3c(=O)n1CCCBr)C2=O`: the GI50 in data set [1] was 21.9 µM; in data set [2], 19.1 µM; in data set [4], 18.2 µM; in data set [5], 36.3 µM; in data set [6], above 100 µM.
For the molecule `NCCCn1c2c(c3ccc([N+](=O)[O-])cc3c1=O)C(=O)c1cc3c(cc1-2)OCO3`, the GI50 in data set [1] was below 0.01 µM; in data set [2] it was below 0.01 µM; in data set [3] it was below 0.01 µM; in data set [4] it was 0.017 µM; in data set [5], below 0.01 µM; in data set [6], 0.302 µM. In addition, the GI50 in data set [7] is below 0.01 µM; in data set [8], 0.025 µM.
`COc1cccc2c1-c1c(c3ccc([N+](=O)[O-])cc3c(=O)n1CCCCl)C2=O`: the GI50 is 5.5 µM in data set [1]; 2.45 µM in data set [2]; 2.4 µM in data set [4]; 15.8 µM in data set [5]; 50.1 µM in data set [6]; 50.1 µM in data set [8].
`COc1cc2c(c(OC)c1OC)-c1c(c3ccc([N+](=O)[O-])cc3c(=O)n1CCCN)C2=O`: the GI50 in data set [1] was 0.933 µM; in data set [2], 0.832 µM; in data set [3] it was 1.38 µM; in data set [4] it was 9.12 µM; in data set [5], 3.98 µM; in data set [6], 10.7 µM. Besides, the GI50 turned out to be 7.24 µM in data set [7] and 0.871 µM in data set [8].
Take `COc1ccc2c(c1)C(=O)c1c-2n(CCCN)c(=O)c2cc([N+](=O)[O-])ccc12`: the GI50 in data set [1], in data set [2], in data set [3], in data set [4] and in data set [5] was below 0.01 µM in each case.
Consider `COc1cc2c(cc1OC)-c1c(c3ccc([N+](=O)[O-])cc3c(=O)n1CCCBr)C2=O`, for which the GI50 came to 20.9 µM in data set [1]; 4.27 µM in data set [2]; 10.5 µM in data set [3]; 2.82 µM in data set [4]; 4.27 µM in data set [5]; 70.8 µM in data set [6]. Further, the GI50 in data set [7] is 24.5 µM; in data set [8], 25.1 µM.
For `COc1ccc2c(c1OC)-c1c(c3ccc([N+](=O)[O-])cc3c(=O)n1CCCN=[N+]=[N-])C2=O`, the 50% growth inhibitory concentration (GI50) in data set [1] is 5.01 µM; in data set [2], 2.95 µM; in data set [3], 5.24 µM; in data set [4] it was 4.57 µM; in data set [5], 11.5 µM; in data set [6], 56.2 µM. In addition, the GI50 was found to be 4.9 µM in data set [7] and 72.4 µM in data set [8].
Take `COc1ccc2c(c1OC)-c1c(c3ccc([N+](=O)[O-])cc3c(=O)n1CCCN)C2=O`: the GI50 in data set [1] amounted to 8.32 µM; in data set [2], 1.51 µM; in data set [3], 1.35 µM; in data set [4], 1.1 µM; in data set [5], 0.977 µM; in data set [6], 14.1 µM. For the same molecule, the GI50 is 0.832 µM in data set [7] and 9.12 µM in data set [8].
Regarding `COc1cc2c(c(OC)c1OC)C(=O)[C@@H]1c3ccc([N+](=O)[O-])cc3C(=O)N(CCCBr)[C@H]21` (relative stereo), the GI50 in data set [1] was below 0.01 µM; in data set [2] it was below 0.01 µM; in data set [3] it was 0.468 µM; in data set [4], below 0.01 µM; in data set [5] it was 0.257 µM; in data set [6], below 0.01 µM. Also, the values for the GI50 in data set [7] and in data set [8] were 1.02 µM and below 0.01 µM, respectively.
As for `COc1cc2c(cc1OC)[C@@H]1[C@H](C2=O)c2ccc([N+](=O)[O-])cc2C(=O)N1CCCBr` (relative stereo), the GI50 was 13.8 µM in data set [1]; 4.57 µM in data set [2]; 11.7 µM in data set [3]; above 100 µM in data set [4]; 7.59 µM in data set [5]; 2.04 µM in data set [6]. For the same molecule, the GI50 in data set [7] was determined as 14.5 µM; in data set [8] it was 2.82 µM.
